Laboratory results as given in patent US10273241B2 (President and Fellows of Harvard College, priority 2013, dated 2019).
Where two headings read alike, the source gives them in different places.

Experiments:
[1] = Liver microsome assay, metabolite formation; type: in vitro ADME, human; conditions: metabolite is compound 24B
MV4;11 = assay: Cell growth assay, MV4;11 AML cell line; type: cell-based, human; conditions: Homo sapiens
Method in brief: (§1)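 Exponentially growing cells at 5,000-30,000 cells/well were added to serially diluted compound in triplicate (0.1% DMSO final). Cell number was estimated by CellTiter-Glo luminescence against a linear standard curve from a dilution series of the vehicle control. Day 7 and 10 counts are split-adjusted theoretical cell numbers.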

AML cells = assay: Comparison with cortistatin A: AML cell growth inhibition and CDK8 kinase inhibition; type: cell-based, human; conditions: more potent than cortistatin A
Protocol: For all other cell lines, compounds were serially diluted in medium and dispensed in triplicate in 96-well plates (0.1% DMSO final for assay) followed by the addition of exponentially growing cells at densities ranging from 5,000 to 30,000 cells/well. Cells were also seeded into 2 additional control wells containing vehicle (0.1% DMSO). After 3 days, the number of viable cells in one of the control wells was counted by hemocytometer or MOXI Z (Orflo) and an equal volume of cells for all wells were split-back with fresh vehicle/compounds such that the resulting seeding density for the control well was 5,000-30,000 cells/well, matching the initial seeding density in that well. This procedure was repeated on day 7 and day 10. % growth was calculated as % growth=100×(total estimated cell number in well−day 0 starting cell number)/(total average vehicle estimated cell number−day 0 starting cell number). To determine the estimated cell number in each well, cells that were counted in the control well were diluted 3-fold for an 8-point dilution series, and transferred to 384-well plates in duplicate, 20 μL per well. Cells in all other wells were diluted 4-fold and transferred to 384-well plates in duplicate, 20 μL per well. 20 μL of CellTiter-Glo (Promega) was subsequently added to all wells and luminescence was detected using a SPECTRAmax M3. […]

K562 = assay: Cell growth assay, K562 cell line; type: cell-based, human; conditions: Homo sapiens, K562, 240 h; day 10; lack of activity is taken as evidence of on-target selectivity
Protocol: For all other cell lines, compounds were serially diluted in medium and dispensed in triplicate in 96-well plates (0.1% DMSO final for assay) followed by the addition of exponentially growing cells at densities ranging from 5,000 to 30,000 cells/well. Cells were also seeded into 2 additional control wells containing vehicle (0.1% DMSO). After 3 days, the number of viable cells in one of the control wells was counted by hemocytometer or MOXI Z (Orflo) and an equal volume of cells for all wells were split-back with fresh vehicle/compounds such that the resulting seeding density for the control well was 5,000-30,000 cells/well, matching the initial seeding density in that well. This procedure was repeated on day 7 and day 10. % growth was calculated as % growth=100×(total estimated cell number in well−day 0 starting cell number)/(total average vehicle estimated cell number−day 0 starting cell number). To determine the estimated cell number in each well, cells that were counted in the control well were diluted 3-fold for an 8-point dilution series, and transferred to 384-well plates in duplicate, 20 μL per well. Cells in all other wells were diluted 4-fold and transferred to 384-well plates in duplicate, 20 μL per well. 20 μL of CellTiter-Glo (Promega) was subsequently added to all wells and luminescence was detected using a SPECTRAmax M3. The control well dilution series was fit to a linear regression and used as a standard for calculating the estimated cell number for each well. For days 7 and 10, total estimated cell number represents the split-adjusted theoretical cell number.

MOLM-14 = assay: Cell growth assay, MOLM-14 AML cell line; type: cell-based, human; conditions: Homo sapiens
Method in brief: as §1

## CN(C)[C@H]1CCC2=CC3=CC[C@]4(C)[C@@H](c5ccc6ccncc6c5)CC[C@H]4C34CC[C@]2(C1)O4 [14B, β-dimethylamine]
[1]
  metabolism in human liver microsomes: undergoes N-monodemethylation at C3
MV4;11; MV4-11, 240 h, day 10, cells passaged, fresh compound added on days 3 and 7, read-out: MV 4;11 GI50 day 10
  GI50: 4 nM
MV4;11; MV4-11, day 7, fresh compound added on day 3, read-out: MV4;11 GI50 day 7
  GI50: 8 nM
AML cells
  potency relative to cortistatin A in cell growth inhibition and in CDK8 kinase inhibition: approximately 2 fold
K562
  GI50: > 1000 nM
MOLM-14; MOLM-14, 240 h, day 10, cells passaged, fresh compound added on days 3 and 7, read-out: MOL M14 G150 day 10
  GI50: 3 nM
MOLM-14; MOLM-14, day 7, fresh compound added on day 3, read-out: MOL M14 GI50 day 7
  GI50: 7 nM
